Measured values: the supplement of paper PMC9013687

Experiments:
Danio rerio embryo [1] = experiment: spontaneous tail coiling frequency (coils/min/embryo); higher = more spontaneous movement; details: 25 hpf
Method: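 Spontaneous tail coilings of zebrafish embryos exposed from 2 hpf were recorded at 24-25 hpf in 1-min videos and detected by a KNIME workflow from grey-value variance. Betamethasone was tested as the dipropionate, diflorasone as the diacetate.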

Danio rerio embryo [2] = experiment: EC20 Head size_Decrease; higher = less potent; details: exposure time: 2 dpf
Method: (§1)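 Zebrafish embryos (UFZ-OBI strain) were exposed from 2 hpf for 48 h (2 dpf) or 96 h (4 dpf) at 28 °C; spontaneous tail coiling was scored at 25 hpf. Morphological features from automated image analysis (FishInspector), heart rate and locomotor response were fitted with drc models. Quantal endpoints were dichotomised at 2.5 SD from controls and fitted with a log-logistic model; heart rate, pigmentation and STC were normalised to the replicate control mean. Betamethasone was tested as betamethasone dipropionate, diflorasone as diflorasone diacetate.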

Danio rerio embryo [3] = experiment: EC20 Pigmentation decrease; higher = less potent; details: exposure time: 2 dpf
Method: as §1

Danio rerio embryo [4] = experiment: EC10 Eye size_Decrease; higher = less potent; details: exposure time: 2 dpf
Method: as §1

Danio rerio embryo [5] = experiment: EC20 Lack of SB; higher = less potent; details: exposure time: 4 dpf
Method: as §1

Danio rerio embryo [6] = experiment: EC50 Eye size_Decrease; details: exposure time: 2 dpf
Method: as §1

Danio rerio embryo [7] = experiment: EC10 Curvature_Increase; higher = less potent
Method: as §1

Danio rerio embryo [8] = details: exposure time: 2 dpf
Method: as §1

Danio rerio embryo [9] = experiment: EC20 Pericard size_Increase; higher = less potent
Method: as §1

Danio rerio embryo [10] = experiment: EC10 Any effect; higher = less potent
Method: as §1

Danio rerio embryo [11] = experiment: EC50 Head trunk angle_Decrease; details: exposure time: 2 dpf
Method: as §1

Danio rerio embryo [12] = details: exposure time: 4 dpf
Method: as §1

Danio rerio embryo [13] = experiment: EC50 Pericard size_Increase
Method: as §1

Danio rerio embryo [14] = experiment: EC10 Bladder size_Decrease; higher = less potent; details: exposure time: 4 dpf
Method: as §1

Danio rerio embryo [15] = experiment: EC10 Body length_Decrease; higher = less potent; details: exposure time: 2 dpf
Method: as §1

Danio rerio embryo [16] = experiment: EC50 Head size_Decrease; details: exposure time: 2 dpf
Method: as §1

Danio rerio embryo [17] = experiment: EC10 Pericard size_Increase; higher = less potent
Method: as §1

Danio rerio embryo [18] = experiment: EC10 Head size_Decrease; higher = less potent; details: exposure time: 2 dpf
Method: as §1

Danio rerio embryo [19] = experiment: EC10 Pigmentation decrease; higher = less potent; details: exposure time: 2 dpf
Method: as §1

Danio rerio embryo [20] = experiment: EC10 Lack of SB; higher = less potent; details: exposure time: 4 dpf
Method: as §1

Danio rerio embryo [21] = experiment: EC20 Bladder size_Decrease; higher = less potent; details: exposure time: 4 dpf
Method: as §1

Danio rerio embryo [22] = experiment: EC20 Eye size_Decrease; higher = less potent; details: exposure time: 2 dpf
Method: as §1

Danio rerio embryo [23] = system: Danio rerio embryo
Method: as §1

Danio rerio embryo [24] = experiment: EC20 Body length_Decrease; higher = less potent; details: exposure time: 2 dpf
Method: as §1

Danio rerio embryo [25] = experiment: EC50 Bladder size_Decrease; details: exposure time: 4 dpf
Method: as §1

Danio rerio embryo [26] = experiment: EC20 Any effect; higher = less potent
Method: as §1

Danio rerio embryo [27] = experiment: EC50 Curvature_Increase
Method: as §1

Danio rerio embryo [28] = experiment: EC50 Body length_Decrease; details: exposure time: 2 dpf
Method: as §1

Danio rerio embryo [29] = experiment: EC20 Curvature_Increase; higher = less potent
Method: as §1

Danio rerio embryo [30] = experiment: EC10 Head trunk angle_Decrease; higher = less potent; details: exposure time: 2 dpf
Method: as §1

Danio rerio embryo [31] = experiment: EC20 Head trunk angle_Decrease; higher = less potent; details: exposure time: 2 dpf
Method: as §1

COC(=O)Nc1nc2ccccc2[nH]1 [Carbendazim]
Details	EC10 Any effect [nM]	EC10 Curvature Increase [nM]	EC10 Pericard size Increase [nM]	EC20 Any effect [nM]	EC20 Curvature Increase [nM]	EC20 Pericard size Increase [nM]	EC50 Any effect [nM]	EC50 Curvature Increase [nM]	EC50 Pericard size Increase [nM]	spontaneous tail coiling frequency
Danio rerio embryo [1], 0.23 µM	–	–	–	–	–	–	–	–	–	2.14
Danio rerio embryo [1], 0.344 µM	–	–	–	–	–	–	–	–	–	1.91
Danio rerio embryo [1], 0.517 µM	–	–	–	–	–	–	–	–	–	2.25
Danio rerio embryo [1], 0.775 µM	–	–	–	–	–	–	–	–	–	2.51
Danio rerio embryo [1], 1.16 µM	–	–	–	–	–	–	–	–	–	1.06
Danio rerio embryo [1], 1.162 µM	–	–	–	–	–	–	–	–	–	2.68
Danio rerio embryo [1], 1.74 µM	–	–	–	–	–	–	–	–	–	1.81
Danio rerio embryo [1], 1.743 µM	–	–	–	–	–	–	–	–	–	1.56
Danio rerio embryo [1], 2.615 µM	–	–	–	–	–	–	–	–	–	2.98
Danio rerio embryo [1], 2.62 µM	–	–	–	–	–	–	–	–	–	2.11
Danio rerio embryo [1], 3.138 µM	–	–	–	–	–	–	–	–	–	4.11
Danio rerio embryo [1], 3.661 µM	–	–	–	–	–	–	–	–	–	3.75
Danio rerio embryo [7], exposure time: 2 dpf	–	2710	–	–	–	–	–	–	–	–
Danio rerio embryo [7], exposure time: 4 dpf	–	2680	–	–	–	–	–	–	–	–
Danio rerio embryo [9], exposure time: 2 dpf	–	–	–	–	–	3110	–	–	–	–
Danio rerio embryo [9], exposure time: 4 dpf	–	–	–	–	–	2760	–	–	–	–
Danio rerio embryo [10], exposure time: 2 dpf	2930	–	–	–	–	–	–	–	–	–
Danio rerio embryo [10], exposure time: 4 dpf	2720	–	–	–	–	–	–	–	–	–
Danio rerio embryo [13], exposure time: 2 dpf	–	–	–	–	–	–	–	–	3430	–
Danio rerio embryo [13], exposure time: 4 dpf	–	–	–	–	–	–	–	–	2990	–
Danio rerio embryo [17], exposure time: 2 dpf	–	–	2940	–	–	–	–	–	–	–
Danio rerio embryo [17], exposure time: 4 dpf	–	–	2630	–	–	–	–	–	–	–
Danio rerio embryo [23], exposure time: 2 dpf	–	–	–	–	–	–	3050	–	–	–
Danio rerio embryo [23], exposure time: 4 dpf	–	–	–	–	–	–	3090	–	–	–
Danio rerio embryo [26], exposure time: 2 dpf	–	–	–	2980	–	–	–	–	–	–
Danio rerio embryo [26], exposure time: 4 dpf	–	–	–	2850	–	–	–	–	–	–
Danio rerio embryo [27], exposure time: 2 dpf	–	–	–	–	–	–	–	3270	–	–
Danio rerio embryo [27], exposure time: 4 dpf	–	–	–	–	–	–	–	3260	–	–
Danio rerio embryo [29], exposure time: 2 dpf	–	–	–	–	2900	–	–	–	–	–
Danio rerio embryo [29], exposure time: 4 dpf	–	–	–	–	2880	–	–	–	–	–

Details	EC10 Bladder size Decrease [nM]	EC10 Body length Decrease [nM]	EC10 Eye size Decrease [nM]	EC10 Head size Decrease [nM]	EC10 Head trunk angle Decrease [nM]	EC10 Lack of SB [nM]	EC10 Pigmentation decrease [nM]	EC20 Bladder size Decrease [nM]	EC20 Body length Decrease [nM]	EC20 Eye size Decrease [nM]	EC20 Head size Decrease [nM]	EC20 Head trunk angle Decrease [nM]	EC20 Lack of SB [nM]	EC20 Pigmentation decrease [nM]	EC50 Bladder size Decrease [nM]	EC50 Body length Decrease [nM]	EC50 Eye size Decrease [nM]	EC50 Head size Decrease [nM]	EC50 Head trunk angle Decrease [nM]	EC50 Lack of SB [nM]	EC50 Pigmentation decrease [nM]
Danio rerio embryo [2]	–	–	–	–	–	–	–	–	–	–	3050	–	–	–	–	–	–	–	–	–	–
Danio rerio embryo [3]	–	–	–	–	–	–	–	–	–	–	–	–	–	2800	–	–	–	–	–	–	–
Danio rerio embryo [4]	–	–	2690	–	–	–	–	–	–	–	–	–	–	–	–	–	–	–	–	–	–
Danio rerio embryo [5]	–	–	–	–	–	–	–	–	–	–	–	–	2440	–	–	–	–	–	–	–	–
Danio rerio embryo [6]	–	–	–	–	–	–	–	–	–	–	–	–	–	–	–	–	3300	–	–	–	–
Danio rerio embryo [8]	–	–	–	–	–	–	–	–	–	–	–	–	–	–	–	–	–	–	–	–	3340
Danio rerio embryo [11]	–	–	–	–	–	–	–	–	–	–	–	–	–	–	–	–	–	–	3470	–	–
Danio rerio embryo [12]	–	–	–	–	–	–	–	–	–	–	–	–	–	–	–	–	–	–	–	2700	–
Danio rerio embryo [14]	977	–	–	–	–	–	–	–	–	–	–	–	–	–	–	–	–	–	–	–	–
Danio rerio embryo [15]	–	2900	–	–	–	–	–	–	–	–	–	–	–	–	–	–	–	–	–	–	–
Danio rerio embryo [16]	–	–	–	–	–	–	–	–	–	–	–	–	–	–	–	–	–	3510	–	–	–
Danio rerio embryo [18]	–	–	–	2810	–	–	–	–	–	–	–	–	–	–	–	–	–	–	–	–	–
Danio rerio embryo [19]	–	–	–	–	–	–	2530	–	–	–	–	–	–	–	–	–	–	–	–	–	–
Danio rerio embryo [20]	–	–	–	–	–	2300	–	–	–	–	–	–	–	–	–	–	–	–	–	–	–
Danio rerio embryo [21]	–	–	–	–	–	–	–	1330	–	–	–	–	–	–	–	–	–	–	–	–	–
Danio rerio embryo [22]	–	–	–	–	–	–	–	–	–	2900	–	–	–	–	–	–	–	–	–	–	–
Danio rerio embryo [24]	–	–	–	–	–	–	–	–	2950	–	–	–	–	–	–	–	–	–	–	–	–
Danio rerio embryo [25]	–	–	–	–	–	–	–	–	–	–	–	–	–	–	2250	–	–	–	–	–	–
Danio rerio embryo [28]	–	–	–	–	–	–	–	–	–	–	–	–	–	–	–	3040	–	–	–	–	–
Danio rerio embryo [30]	–	–	–	–	2730	–	–	–	–	–	–	–	–	–	–	–	–	–	–	–	–
Danio rerio embryo [31]	–	–	–	–	–	–	–	–	–	–	–	2980	–	–	–	–	–	–	–	–	–
